# Measured values published in US8785614B2, “Aberrantly methylated genes in pancreatic cancer” (The Johns Hopkins University, priority 2003, dated 2014).
# Read-outs that look alike come from different tables or passages of the source.
# Tested on: four pancreatic cancer cell lines (AsPC1, Hs766T, MiaPaCa2, Panc1)
# Type: cell-based, human
# Source text: These include a large panel of novel targets for silencing by histone deacetylation including several known tumor suppressor genes or cell cycle-regulatory genes (ING1, p57KIP2, CHES1, CHFR, GADD45B, and others).
smiles,measurement,setting,value
"CC(/C=C/C(=O)NO)=C\[C@@H](C)C(=O)c1ccc(N(C)C)cc1 [TSA, trichostatin A]",changes in phenotypes during the treatment period,,did not result in apparent changes in their phenotypes
same,Induced by TSA alone?,ANGPT2,No
same,Induced by TSA alone?,BARD1,No
same,Induced by TSA alone?,BIK,Yes
same,Induced by TSA alone?,BNIP3,Yes
same,Induced by TSA alone?,BNIP3 (Table 3),Yes
same,Induced by TSA alone?,BST2,No
same,Induced by TSA alone?,BST2 (Table 3),No
same,Induced by TSA alone?,CACNA1G,Yes
same,Induced by TSA alone?,CASP5,No
same,Induced by TSA alone?,CCNA1,No
same,Induced by TSA alone?,CCNE2,No
same,Induced by TSA alone?,CDC25A,No
same,Induced by TSA alone?,CDH3,No
same,Induced by TSA alone?,CDKN1A (p21),No
same,Induced by TSA alone?,CDKN1C,Yes
same,Induced by TSA alone?,CDKN2A (p16),No
same,Induced by TSA alone?,CLDN5,No
same,Induced by TSA alone?,CLDN7,No
same,Induced by TSA alone?,CRIP 1,Yes
same,Induced by TSA alone?,CRLF1,Yes
same,Induced by TSA alone?,CSF1,Yes
same,Induced by TSA alone?,CSF3,No
same,Induced by TSA alone?,Cdc42 effector protein 2,No
same,Induced by TSA alone?,DAPK2,No
same,Induced by TSA alone?,DAZL,Yes
same,Induced by TSA alone?,DEAD box RNA helicase (VASA),No
same,Induced by TSA alone?,DR3,No
same,Induced by TSA alone?,FOXE1,No
same,Induced by TSA alone?,GAGE1,Yes
same,Induced by TSA alone?,GAGE2,Yes
same,Induced by TSA alone?,GAGE3,Yes
same,Induced by TSA alone?,GAGE4,Yes
same,Induced by TSA alone?,GAGE6,Yes
same,Induced by TSA alone?,GAGE7,Yes
same,Induced by TSA alone?,GAGE7B,Yes
same,Induced by TSA alone?,GAS1,No
same,Induced by TSA alone?,HOXA1,No
same,Induced by TSA alone?,HSPA1A,Yes
same,Induced by TSA alone?,IGF2,No
same,Induced by TSA alone?,IL1R1,No
same,Induced by TSA alone?,ISG20,No
same,Induced by TSA alone?,ITM3,Yes
same,Induced by TSA alone?,JPH3,No
same,Induced by TSA alone?,KLK10,No
same,Induced by TSA alone?,KRT17,No
same,Induced by TSA alone?,LDOC1,No
same,Induced by TSA alone?,LHX1,No
same,Induced by TSA alone?,LHX2,No
same,Induced by TSA alone?,LIPC,No
same,Induced by TSA alone?,MAGE1,Yes
same,Induced by TSA alone?,MAGEC1,Yes
same,Induced by TSA alone?,MATN1,Yes
same,Induced by TSA alone?,MLH1,Yes
same,Induced by TSA alone?,NEFH,Yes
same,Induced by TSA alone?,NK4,Yes
same,Induced by TSA alone?,NPTX2,Yes
same,Induced by TSA alone?,PAX6,No
same,Induced by TSA alone?,PAX6 (Table 3),No
same,Induced by TSA alone?,PDYN,No
same,Induced by TSA alone?,PIG11 (Table 3),No
same,Induced by TSA alone?,PLAT,No
same,Induced by TSA alone?,PLEK2,No
same,Induced by TSA alone?,PRG1,Yes
same,Induced by TSA alone?,S100A2,No
same,Induced by TSA alone?,S100P,No
same,Induced by TSA alone?,SALL1,No
same,Induced by TSA alone?,SARP2,No
same,Induced by TSA alone?,SARP2 (Table 3),No
same,Induced by TSA alone?,SGCE,Yes
same,Induced by TSA alone?,SMARCA1,No
same,Induced by TSA alone?,SPANXC,Yes
same,Induced by TSA alone?,ST14,Yes
same,Induced by TSA alone?,STAT3,Yes
same,Induced by TSA alone?,TERT,No
same,Induced by TSA alone?,TIMP3,No
same,Induced by TSA alone?,TJP2,No
